One data set concerns the target human motilin receptor (Homo sapiens, UniProt O43193). Description: Competitive radioligand binding assay (motilin receptor). More on the design: purchased PerkinElmer (SignalScreen) 6110544; host or cells: CHO cells, stably transfected; membranes. In a few lines: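 Membranes from CHO cells stably expressing human motilin receptor were incubated 2 h at room temperature with [125I]-motilin (0.04-0.06 nM final) and compound (0.0050–10 μM) in Tris-HCl pH 7.4, MgCl2, EDTA, 0.1% BSA. Filter-bound counts were measured; 1 μM motilin defined non-specific binding; variable-slope non-linear regression.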

The nature of data set [1]: Pharmacokinetic analysis in rat (i.v., s.c., p.o.). The format is in vivo. The note with it: for half-life: read-out: Elimination (t1/2, min). From the text:
I. Pharmacokinetic Analysis of Representative Compounds of the Invention
The pharmacokinetic behavior of compound of the invention can be ascertained by methods well known to those skilled in the art. (Wilkinson, G. R. “Pharmacokinetics: The Dynamics of Drug Absorption, Distribution, and Elimination” in Goodman & Gilman's The Pharmacological Basis of Therapeutics, Tenth Edition, Hardman, J. G.; Limbird, L. E., Eds., McGraw Hill, Columbus, Ohio, 2001, Chapter 1.) The following method was used to investigate the pharmacokinetic parameters (elimination half-life, total plasma clearance, etc.) for intravenous, subcutaneous and oral administration of compounds of the present invention.
Rats: male, Sprague-Dawley (˜250 g)
Rats/Treatment Group: 6 (2 subsets of 3 rats each, alternate bleeds)
Each sample of test compound was sent in solution in a formulation (such as with cyclodextrin) appropriate for dosing. It will be appreciated by one skilled in the art that appropriate modifications to this protocol can be made as required to adequately test the properties of the compound under analysis.
1. Intravenous (i.v.): 2 mg/kg
2. Subcutaneous(s.c): 2 mg/kg
Plasma Collection 1. Same protocol for all dosing groups 2. For each group, 2 subsets (A and B) of 3 rats/subset
At the time intervals indicated above, 0.7 mL of blood were collected from each animal. It is expected that this volume of blood will yield a sample of at least 0.3 mL of plasma. EDTA was used as an anti-coagulant for whole blood collection. Whole blood samples were chilled and immediately processed by centrifugation to obtain plasma.
Plasma samples were stored frozen (−70° C.) until analysis. Analytical detection of parent compound in plasma samples performed by LC-MS after an appropriate preparation protocol: extraction using solid phase extraction (SPE) cartridges (Oasis MCX, Oasis HLB) or liquid-liquid extraction.
Column: Atlantis dC18 from Waters 2.1×30 mm
A: 95% MeOH, 5% water, 0.1% TFA
B: 95% water, 5% MeOH, 0.1% TFA
The analyte was quantitated based upon a standard curve and the method validated with internal standards.

Where [2] appears, read: [125I]-motilin competition, membranes of CHO cells with human motilin receptor, read-out: Ki.

Like-named read-outs stand apart in the source and are kept apart here. Some results are limits rather than exact numbers.

Sequence of human motilin receptor (O43193 whole entry): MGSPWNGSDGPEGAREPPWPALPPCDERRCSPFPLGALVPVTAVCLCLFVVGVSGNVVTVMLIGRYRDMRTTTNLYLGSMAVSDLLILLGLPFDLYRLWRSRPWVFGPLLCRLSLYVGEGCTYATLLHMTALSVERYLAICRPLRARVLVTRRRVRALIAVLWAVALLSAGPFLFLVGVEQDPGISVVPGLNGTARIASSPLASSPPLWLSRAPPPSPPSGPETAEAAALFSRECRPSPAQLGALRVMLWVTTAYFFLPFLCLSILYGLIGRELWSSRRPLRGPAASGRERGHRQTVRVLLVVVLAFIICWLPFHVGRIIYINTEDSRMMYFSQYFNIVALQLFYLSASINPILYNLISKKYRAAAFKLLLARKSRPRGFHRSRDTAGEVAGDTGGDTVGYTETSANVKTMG

In the case of `CC(C)[C@H]1NC(=O)[C@@H](Cc2cccc(C(F)(F)F)c2)NCCOc2ccccc2CCCNC(=O)[C@H](CN(C)C)NC1=O` [Compound 502], the Ki at human motilin receptor (Table 7, read-out: Binding Ki) is at most 10 nM. For the same compound, the figures for the “Clearance” value in data set [1] (i.v.) and in data set [1] (s.c.) were 57 mL/min/kg and 79 mL/min/kg, respectively. Also, the “Elimination (t1/2, min)” value in data set [1] (i.v., typical dose 2 mg/kg) is on record as 102 min; in data set [1] (s.c., typical dose 2 mg/kg), 146 min.
`CCC[C@@H]1NC(=O)[C@@H](C(C)C)NC(=O)[C@@H](Cc2cccc(F)c2)N[C@@H](C)COc2ccccc2CCCNC1=O` [Compound 551]: the Ki is at most 10 nM on human motilin receptor (Table 7, read-out: Binding Ki) and at most 10 nM at human motilin receptor (setting [2]). Moreover, the “Clearance” value in data set [1] (i.v.) turned out to be 33 mL/min/kg. The “Elimination (t1/2, min)” value is 139 min in data set [1] (i.v., typical dose 2 mg/kg) and 70 to 125 min in data set [1] (p.o., typical dose 8 mg/kg, without cyclodextrin). Moreover, the “Bioavailability (oral)” value in data set [1] (p.o., without cyclodextrin) stood at 6%.
In the case of `CCC[C@@H]1NC(=O)[C@@H](C(C)C)NC(=O)[C@@H](Cc2ccc(O)c(Cl)c2)N[C@@H](C)COc2ccccc2CCCNC1=O` [Compound 552], the Ki at human motilin receptor (setting [2]) was at most 10 nM. The Clearance in data set [1] (male, Sprague-Dawley, plasma, iv, 1.9 mg/kg, i.v., read-out: Clearance) amounted to 45 mL/min/kg; in data set [1] (s.c.), 39 mL/min/kg. The half-life worked out at 24 min in data set [1] (male, Sprague-Dawley, plasma, iv, typical dose 2 mg/kg); 307 min in data set [1] (male, Sprague-Dawley, plasma, po, typical dose 8 mg/kg, in the presence of 10% beta-cyclodextrin); 103 min in data set [1] (male, Sprague-Dawley, plasma, sc, typical dose 2 mg/kg). Besides, the bioavailability in data set [1] (male, Sprague-Dawley, plasma, po, 8 mg/kg, in the presence of 10% beta-cyclodextrin) came out at 10%.
Regarding `CCC[C@@H]1NC(=O)[C@@H](C(C)C)NC(=O)[C@@H](Cc2ccc(O)c(C(C)(C)C)c2)NCCOc2ccccc2CCCNC1=O` [Compound 553], the Ki is at most 10 nM on human motilin receptor (Table 7, read-out: Binding Ki) and at most 10 nM on human motilin receptor (setting [2]).

Broadly, the Ki is the equilibrium dissociation constant of an inhibitor or competing ligand from its target. Broadly, the bioavailability is dose-corrected exposure relative to a reference, in per cent.
